Assay results from the NIST ThermoML archive (doi:10.1016/j.fluid.2018.04.007).

Experiments:
[1] = relative permittivity at various frequencies (dimensionless); xn = mol fraction of the nth substance listed; settings: 101 kPa, Liquid, Frequency=1 MHz, Parallel plate capacitor
[2] = refractive index (Na D-line) (dimensionless); xn = mol fraction of the nth substance listed; settings: 101 kPa, Liquid, Standard Abbe refractometry

CCCCCCN [1-hexanamine] + CCCCO
Settings | refractive index, 293.15 K | refractive index, 298.15 K | refractive index, 303.15 K | relative permittivity, 293.15 K | relative permittivity, 298.15 K | relative permittivity, 303.15 K
[1], x2 = 0 | – | – | – | 3.965 | 3.904 | 3.845
[1], x2 = 0.051 | – | – | – | 4.258 | 4.186 | 4.12
[1], x2 = 0.0969 | – | – | – | 4.538 | 4.46 | 4.385
[1], x2 = 0.1402 | – | – | – | 4.828 | 4.739 | 4.656
[1], x2 = 0.2052 | – | – | – | 5.294 | 5.19 | 5.094
[1], x2 = 0.3095 | – | – | – | 6.164 | 6.028 | 5.898
[1], x2 = 0.4059 | – | – | – | 7.139 | 6.965 | 6.797
[1], x2 = 0.5054 | – | – | – | 8.352 | 8.121 | 7.905
[1], x2 = 0.593 | – | – | – | 9.623 | 9.333 | 9.058
[1], x2 = 0.6983 | – | – | – | 11.376 | 11.005 | 10.656
[1], x2 = 0.8047 | – | – | – | 13.472 | 13.003 | 12.566
[1], x2 = 0.8525 | – | – | – | 14.558 | 14.054 | 13.565
[1], x2 = 0.9035 | – | – | – | 15.741 | 15.182 | 14.656
[1], x2 = 0.946 | – | – | – | 16.795 | 16.197 | 15.632
[2], x2 = 0 | 1.4181 | 1.41565 | 1.41322 | – | – | –
[2], x2 = 0.0552 | 1.41812 | 1.41564 | 1.41324 | – | – | –
[2], x2 = 0.0896 | 1.418 | 1.41556 | 1.41319 | – | – | –
[2], x2 = 0.1588 | 1.41781 | 1.41542 | 1.41306 | – | – | –
[2], x2 = 0.1967 | 1.41768 | 1.41529 | 1.41294 | – | – | –
[2], x2 = 0.3035 | 1.41702 | 1.4147 | 1.4124 | – | – | –
[2], x2 = 0.4077 | 1.41603 | 1.41381 | 1.41148 | – | – | –
[2], x2 = 0.4984 | 1.41487 | 1.41267 | 1.4104 | – | – | –
[2], x2 = 0.6004 | 1.41298 | 1.41079 | 1.40852 | – | – | –
[2], x2 = 0.6977 | 1.41065 | 1.40845 | 1.40621 | – | – | –
[2], x2 = 0.7982 | 1.40746 | 1.40534 | 1.40316 | – | – | –
[2], x2 = 0.8451 | 1.40577 | 1.40368 | 1.40155 | – | – | –
[2], x2 = 0.8996 | 1.40359 | 1.40158 | 1.39949 | – | – | –
[2], x2 = 0.9461 | 1.40166 | 1.39965 | 1.39765 | – | – | –

CCCCCCN [1-hexanamine] + CCCO
Settings | refractive index, 293.15 K | refractive index, 298.15 K | refractive index, 303.15 K | relative permittivity, 293.15 K | relative permittivity, 298.15 K | relative permittivity, 303.15 K
[1], x2 = 0 | – | – | – | 3.964 | 3.904 | 3.846
[1], x2 = 0.0708 | – | – | – | 4.411 | 4.336 | 4.263
[1], x2 = 0.1073 | – | – | – | 4.663 | 4.578 | 4.499
[1], x2 = 0.147 | – | – | – | 4.953 | 4.857 | 4.77
[1], x2 = 0.1935 | – | – | – | 5.33 | 5.222 | 5.123
[1], x2 = 0.307 | – | – | – | 6.436 | 6.286 | 6.148
[1], x2 = 0.3941 | – | – | – | 7.471 | 7.279 | 7.102
[1], x2 = 0.5056 | – | – | – | 9.113 | 8.85 | 8.605
[1], x2 = 0.6097 | – | – | – | 10.99 | 10.649 | 10.324
[1], x2 = 0.6977 | – | – | – | 12.847 | 12.426 | 12.034
[1], x2 = 0.8044 | – | – | – | 15.469 | 14.948 | 14.463
[1], x2 = 0.8406 | – | – | – | 16.431 | 15.885 | 15.354
[1], x2 = 0.8989 | – | – | – | 18.08 | 17.478 | 16.902
[1], x2 = 0.9504 | – | – | – | 19.605 | 18.955 | 18.33
[2], x2 = 0 | 1.41808 | 1.41563 | 1.41321 | – | – | –
[2], x2 = 0.052 | 1.41775 | 1.41529 | 1.41292 | – | – | –
[2], x2 = 0.1015 | 1.41735 | 1.41492 | 1.41258 | – | – | –
[2], x2 = 0.1475 | 1.41693 | 1.41452 | 1.41223 | – | – | –
[2], x2 = 0.2108 | 1.41627 | 1.41393 | 1.4116 | – | – | –
[2], x2 = 0.2983 | 1.41509 | 1.41276 | 1.41049 | – | – | –
[2], x2 = 0.3967 | 1.41351 | 1.4112 | 1.40878 | – | – | –
[2], x2 = 0.4998 | 1.41113 | 1.40876 | 1.40642 | – | – | –
[2], x2 = 0.604 | 1.40784 | 1.40551 | 1.40323 | – | – | –
[2], x2 = 0.6965 | 1.40408 | 1.40199 | 1.39964 | – | – | –
[2], x2 = 0.8013 | 1.39877 | 1.39675 | 1.39454 | – | – | –
[2], x2 = 0.8505 | 1.39588 | 1.39373 | 1.39168 | – | – | –
[2], x2 = 0.8953 | 1.39295 | 1.39085 | 1.38884 | – | – | –
[2], x2 = 0.9486 | 1.38914 | 1.38704 | 1.38505 | – | – | –
